Molecular target: MDM2 (Homo sapiens, UniProt Q00987)
Test: HTRF MDM2-p53 binding (displacement) assay

Chain of MDM2 (Q00987 whole entry): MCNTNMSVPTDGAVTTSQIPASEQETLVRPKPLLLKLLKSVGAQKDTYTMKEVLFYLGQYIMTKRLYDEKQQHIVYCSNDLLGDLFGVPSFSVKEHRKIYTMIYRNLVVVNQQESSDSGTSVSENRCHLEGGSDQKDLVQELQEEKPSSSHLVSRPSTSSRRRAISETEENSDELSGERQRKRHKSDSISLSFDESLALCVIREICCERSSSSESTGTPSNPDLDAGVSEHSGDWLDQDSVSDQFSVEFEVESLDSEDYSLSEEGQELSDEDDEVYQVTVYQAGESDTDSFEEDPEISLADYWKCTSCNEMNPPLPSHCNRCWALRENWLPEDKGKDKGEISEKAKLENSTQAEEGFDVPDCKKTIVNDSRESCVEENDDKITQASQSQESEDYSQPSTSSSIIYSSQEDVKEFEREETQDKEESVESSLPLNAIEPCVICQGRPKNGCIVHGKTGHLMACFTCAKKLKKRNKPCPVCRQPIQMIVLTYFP
Chain of MDM2 (P04637 whole entry partner): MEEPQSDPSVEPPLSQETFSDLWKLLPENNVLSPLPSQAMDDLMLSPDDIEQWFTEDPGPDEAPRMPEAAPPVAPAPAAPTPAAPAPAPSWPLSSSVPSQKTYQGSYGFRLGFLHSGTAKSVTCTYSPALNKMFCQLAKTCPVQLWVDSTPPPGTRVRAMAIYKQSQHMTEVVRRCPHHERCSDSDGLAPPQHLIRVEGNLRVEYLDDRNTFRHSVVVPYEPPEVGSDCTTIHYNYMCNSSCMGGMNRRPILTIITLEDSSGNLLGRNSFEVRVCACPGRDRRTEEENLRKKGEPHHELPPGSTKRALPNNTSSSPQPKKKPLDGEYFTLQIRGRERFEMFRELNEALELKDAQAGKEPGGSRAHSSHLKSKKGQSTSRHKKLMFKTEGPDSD

## COCCOCCOCCOC(=O)N1[C@@H](CC(C)(C)C)[C@@]2(C(=O)Nc3cc(Cl)ccc32)[C@@H](c2cccc(Cl)c2F)[C@@H]1C(=O)Nc1ccc(C(N)=O)cc1OC [XR-2, 2-(2-(2-methoxyethoxy)ethoxy)ethyl-(2′S,3R,4′S,5′R)-5'-((4-carbamoyl-2-methoxyphenyl)carbamoyl)-6-chloro-4'-(3-chloro-2-fluorophenyl)-2′-neopentyl-2-oxospiro[indoline-3,3′-pyrrolidine]-1′-carboxylate]
  HTRF MDM2-p53 binding (displacement) assay: The homogeneous time-resolved fluorescence binding assay proved that XR-2 directly inhibited MDM2–p53 interaction
